The values below come from ChEMBL document CHEMBL4477252, “Optimization of microtubule affinity regulating kinase (MARK) inhibitors with improved physical properties” (Bioorg Med Chem Lett, 2016).

Assay [1] has as its target RAC-alpha serine/threonine-protein kinase (Homo sapiens, UniProt P31749). Nature of the assay: Inhibition of full-length recombinant human His-tagged AKT1-alpha expressed in baculovirus expression system by Z'-LYTE assay.
In assay [2] the target is T1, Calcium/calmodulin-dependent protein kinase type IV (Homo sapiens, UniProt Q16566).
T1 sequence (Q16566 whole entry): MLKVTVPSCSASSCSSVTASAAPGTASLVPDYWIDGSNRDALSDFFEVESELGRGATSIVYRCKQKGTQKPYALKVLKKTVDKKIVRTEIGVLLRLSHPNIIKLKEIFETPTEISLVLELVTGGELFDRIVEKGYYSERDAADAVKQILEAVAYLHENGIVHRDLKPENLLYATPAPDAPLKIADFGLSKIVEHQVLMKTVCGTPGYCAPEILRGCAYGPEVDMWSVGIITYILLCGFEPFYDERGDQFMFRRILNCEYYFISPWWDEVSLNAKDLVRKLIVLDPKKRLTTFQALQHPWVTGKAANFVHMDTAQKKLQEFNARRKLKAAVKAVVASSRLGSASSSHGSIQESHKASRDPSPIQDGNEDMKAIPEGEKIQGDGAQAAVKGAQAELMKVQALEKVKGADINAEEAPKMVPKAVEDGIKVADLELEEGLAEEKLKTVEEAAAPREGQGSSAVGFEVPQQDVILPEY
Nature of the assay: Inhibition of full-length recombinant human GST-tagged CAMK4 expressed in Escherichia coli by Z'-LYTE assay.

Assay [3] addresses T2, Serine/threonine-protein kinase Chk1 (Homo sapiens, UniProt O14757).
T2 sequence (O14757 whole entry): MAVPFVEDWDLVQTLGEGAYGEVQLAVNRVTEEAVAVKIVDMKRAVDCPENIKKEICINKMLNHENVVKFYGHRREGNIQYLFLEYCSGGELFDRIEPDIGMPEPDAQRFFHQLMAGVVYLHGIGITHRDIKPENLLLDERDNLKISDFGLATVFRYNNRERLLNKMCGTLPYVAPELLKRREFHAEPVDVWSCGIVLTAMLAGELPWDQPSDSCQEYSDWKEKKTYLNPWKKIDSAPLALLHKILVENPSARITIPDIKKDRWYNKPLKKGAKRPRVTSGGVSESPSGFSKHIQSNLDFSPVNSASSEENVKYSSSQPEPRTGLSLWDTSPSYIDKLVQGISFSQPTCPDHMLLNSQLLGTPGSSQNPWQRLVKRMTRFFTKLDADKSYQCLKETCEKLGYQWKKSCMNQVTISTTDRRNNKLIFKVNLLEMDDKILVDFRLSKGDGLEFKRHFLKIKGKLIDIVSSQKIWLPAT
In words: Inhibition of full-length recombinant human His-tagged CHEK1 expressed in baculovirus expression system by Z'-LYTE assay.

For assay [4], the target named is Dual specificity tyrosine-phosphorylation-regulated kinase 1A (Homo sapiens, UniProt Q13627). In words: Inhibition of full-length recombinant human GST-tagged DYRK1A expressed in baculovirus expression system by Z'-LYTE assay.
Assay [5] addresses T3, Receptor-type tyrosine-protein kinase FLT3 (Homo sapiens, UniProt P36888).
T3 sequence (P36888 whole entry): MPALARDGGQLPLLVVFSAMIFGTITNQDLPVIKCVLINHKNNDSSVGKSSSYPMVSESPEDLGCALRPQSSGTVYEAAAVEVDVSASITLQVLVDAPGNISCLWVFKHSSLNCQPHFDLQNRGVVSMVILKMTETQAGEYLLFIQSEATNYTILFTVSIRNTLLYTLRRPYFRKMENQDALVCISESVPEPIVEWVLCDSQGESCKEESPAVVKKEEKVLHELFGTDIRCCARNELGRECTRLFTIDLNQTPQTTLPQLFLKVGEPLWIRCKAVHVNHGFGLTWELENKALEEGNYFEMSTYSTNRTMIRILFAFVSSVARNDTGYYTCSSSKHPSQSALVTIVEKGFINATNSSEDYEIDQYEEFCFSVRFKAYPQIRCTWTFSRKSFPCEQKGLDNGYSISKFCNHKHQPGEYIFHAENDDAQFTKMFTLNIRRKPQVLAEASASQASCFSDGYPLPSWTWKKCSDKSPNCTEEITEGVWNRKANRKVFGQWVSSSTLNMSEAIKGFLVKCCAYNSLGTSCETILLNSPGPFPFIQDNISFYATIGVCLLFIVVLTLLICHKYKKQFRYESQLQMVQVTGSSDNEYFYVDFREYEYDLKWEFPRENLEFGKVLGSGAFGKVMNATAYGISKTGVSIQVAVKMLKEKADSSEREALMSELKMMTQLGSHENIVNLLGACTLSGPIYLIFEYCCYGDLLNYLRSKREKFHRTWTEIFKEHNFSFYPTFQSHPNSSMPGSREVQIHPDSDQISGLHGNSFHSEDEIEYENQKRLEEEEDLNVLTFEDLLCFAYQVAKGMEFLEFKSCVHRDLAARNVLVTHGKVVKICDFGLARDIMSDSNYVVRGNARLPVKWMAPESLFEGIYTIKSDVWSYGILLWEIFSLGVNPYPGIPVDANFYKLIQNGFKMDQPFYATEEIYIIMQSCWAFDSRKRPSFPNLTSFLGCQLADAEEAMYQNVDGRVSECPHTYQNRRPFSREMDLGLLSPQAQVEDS
Nature of the assay: Inhibition of recombinant human His-tagged cytoplasmic FLT3 expressed in baculovirus expression system by Z'-LYTE assay.

In assay [6] the target is G protein-coupled receptor kinase 6 (Homo sapiens, UniProt P43250). Nature of the assay: Inhibition of full-length recombinant human GST-tagged GRK6 expressed in baculovirus expression system by Z'-LYTE assay.
Sequence of G protein-coupled receptor kinase 6 (P43250 whole entry): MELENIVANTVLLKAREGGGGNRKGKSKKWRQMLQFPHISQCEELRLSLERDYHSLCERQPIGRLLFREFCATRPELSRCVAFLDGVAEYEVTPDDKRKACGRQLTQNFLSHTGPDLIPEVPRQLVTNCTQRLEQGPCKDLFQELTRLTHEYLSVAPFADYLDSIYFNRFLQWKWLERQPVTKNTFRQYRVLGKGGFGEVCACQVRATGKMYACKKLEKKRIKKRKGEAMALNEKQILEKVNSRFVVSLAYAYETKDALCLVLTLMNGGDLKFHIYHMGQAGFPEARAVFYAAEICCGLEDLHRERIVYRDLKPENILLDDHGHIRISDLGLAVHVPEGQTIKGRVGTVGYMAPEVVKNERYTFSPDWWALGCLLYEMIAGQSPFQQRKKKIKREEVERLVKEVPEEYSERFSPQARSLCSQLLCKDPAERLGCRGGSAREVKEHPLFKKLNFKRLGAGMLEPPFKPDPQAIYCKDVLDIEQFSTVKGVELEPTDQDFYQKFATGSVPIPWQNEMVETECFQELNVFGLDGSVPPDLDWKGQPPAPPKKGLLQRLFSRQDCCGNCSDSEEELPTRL
Assay [7] deals with Tyrosine-protein kinase HCK (Homo sapiens, UniProt P08631). In words: Inhibition of full-length human N-terminal GST-tagged HCK expressed in baculovirus expression system by Z'-LYTE assay.
In assay [8] the target is Interleukin-1 receptor-associated kinase 1 (Homo sapiens, UniProt P51617). Nature of the assay: Inhibition of recombinant human GST-tagged IRAK1 (194 to 712 residues) catalytic domain expressed in baculovirus expression system by Adapta assay.
Sequence of Interleukin-1 receptor-associated kinase 1 (P51617 whole entry, the tested form may be a part): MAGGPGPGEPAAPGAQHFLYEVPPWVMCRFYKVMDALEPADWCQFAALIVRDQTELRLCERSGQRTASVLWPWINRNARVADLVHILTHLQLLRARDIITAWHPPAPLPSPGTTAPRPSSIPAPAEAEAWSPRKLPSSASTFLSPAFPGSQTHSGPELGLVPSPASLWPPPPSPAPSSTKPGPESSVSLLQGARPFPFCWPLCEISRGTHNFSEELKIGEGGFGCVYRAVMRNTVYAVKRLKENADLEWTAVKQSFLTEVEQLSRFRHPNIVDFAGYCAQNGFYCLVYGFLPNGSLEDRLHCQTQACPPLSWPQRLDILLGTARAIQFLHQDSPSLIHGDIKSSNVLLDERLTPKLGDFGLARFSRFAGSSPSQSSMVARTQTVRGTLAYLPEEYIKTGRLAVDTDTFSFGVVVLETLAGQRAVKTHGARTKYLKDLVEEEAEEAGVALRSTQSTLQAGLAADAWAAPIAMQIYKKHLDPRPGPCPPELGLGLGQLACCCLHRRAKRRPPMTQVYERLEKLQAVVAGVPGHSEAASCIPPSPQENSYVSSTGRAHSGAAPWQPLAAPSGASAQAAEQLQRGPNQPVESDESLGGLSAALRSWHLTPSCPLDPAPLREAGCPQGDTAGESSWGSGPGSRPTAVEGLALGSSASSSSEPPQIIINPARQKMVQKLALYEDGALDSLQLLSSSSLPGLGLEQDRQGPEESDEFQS
The target of assay [9] is Mitogen-activated protein kinase 8 (Homo sapiens, UniProt P45983). Nature of the assay: Inhibition of full-length recombinant human His-tagged MAPK8 expressed in baculovirus expression system by Z'-LYTE assay.
Sequence of Mitogen-activated protein kinase 8 (P45983 whole entry, the tested form may be a part): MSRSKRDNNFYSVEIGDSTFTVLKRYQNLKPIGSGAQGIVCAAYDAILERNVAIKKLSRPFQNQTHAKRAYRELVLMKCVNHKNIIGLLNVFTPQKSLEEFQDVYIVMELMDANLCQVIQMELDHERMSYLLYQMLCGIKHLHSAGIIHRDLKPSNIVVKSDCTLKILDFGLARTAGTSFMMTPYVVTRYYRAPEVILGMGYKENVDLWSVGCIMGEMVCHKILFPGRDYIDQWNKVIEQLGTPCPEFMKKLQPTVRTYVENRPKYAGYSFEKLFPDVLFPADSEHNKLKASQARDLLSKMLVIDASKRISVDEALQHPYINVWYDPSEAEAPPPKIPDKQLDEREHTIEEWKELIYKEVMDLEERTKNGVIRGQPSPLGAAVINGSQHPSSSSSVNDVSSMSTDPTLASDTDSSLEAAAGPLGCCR
Assay [10] addresses Misshapen-like kinase 1 (Homo sapiens, UniProt Q8N4C8). In words: Inhibition of recombinant human His-tagged MINK1 catalytic domain expressed in baculovirus expression system by Z'-LYTE assay.
The target in assay [11] is Serine/threonine-protein kinase Nek4 (Homo sapiens, UniProt P51957). In words: Inhibition of full-length recombinant human GST-tagged NEK4 expressed in baculovirus expression system by Z'-LYTE assay.
Sequence of Serine/threonine-protein kinase Nek4 (P51957 whole entry): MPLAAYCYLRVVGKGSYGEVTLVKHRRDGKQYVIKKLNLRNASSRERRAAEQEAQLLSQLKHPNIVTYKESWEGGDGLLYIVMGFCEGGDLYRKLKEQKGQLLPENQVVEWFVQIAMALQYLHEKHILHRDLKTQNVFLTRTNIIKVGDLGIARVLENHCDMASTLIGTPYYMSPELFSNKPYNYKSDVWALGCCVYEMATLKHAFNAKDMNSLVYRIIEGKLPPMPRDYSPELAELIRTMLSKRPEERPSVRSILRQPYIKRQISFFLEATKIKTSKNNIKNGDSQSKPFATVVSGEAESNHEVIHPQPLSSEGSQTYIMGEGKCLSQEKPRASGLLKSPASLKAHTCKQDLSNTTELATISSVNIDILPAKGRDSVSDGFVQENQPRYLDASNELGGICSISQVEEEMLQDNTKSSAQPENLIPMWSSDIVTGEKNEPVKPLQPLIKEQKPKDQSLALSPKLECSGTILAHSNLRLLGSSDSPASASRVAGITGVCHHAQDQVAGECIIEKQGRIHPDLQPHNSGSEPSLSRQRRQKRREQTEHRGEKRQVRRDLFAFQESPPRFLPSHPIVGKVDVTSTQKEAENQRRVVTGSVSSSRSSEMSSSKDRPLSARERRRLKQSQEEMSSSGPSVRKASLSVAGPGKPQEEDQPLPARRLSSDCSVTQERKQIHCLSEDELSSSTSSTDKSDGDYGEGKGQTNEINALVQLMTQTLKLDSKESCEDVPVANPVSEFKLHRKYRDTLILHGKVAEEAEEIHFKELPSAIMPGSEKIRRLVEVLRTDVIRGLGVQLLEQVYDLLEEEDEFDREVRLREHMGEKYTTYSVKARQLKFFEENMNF
In assay [12] the target is Serine/threonine-protein kinase Nek6 (Homo sapiens, UniProt Q9HC98). In words: Inhibition of full-length recombinant human GST-tagged NEK6 expressed in insect cells by Z'-LYTE assay.
Sequence of Serine/threonine-protein kinase Nek6 (Q9HC98 whole entry): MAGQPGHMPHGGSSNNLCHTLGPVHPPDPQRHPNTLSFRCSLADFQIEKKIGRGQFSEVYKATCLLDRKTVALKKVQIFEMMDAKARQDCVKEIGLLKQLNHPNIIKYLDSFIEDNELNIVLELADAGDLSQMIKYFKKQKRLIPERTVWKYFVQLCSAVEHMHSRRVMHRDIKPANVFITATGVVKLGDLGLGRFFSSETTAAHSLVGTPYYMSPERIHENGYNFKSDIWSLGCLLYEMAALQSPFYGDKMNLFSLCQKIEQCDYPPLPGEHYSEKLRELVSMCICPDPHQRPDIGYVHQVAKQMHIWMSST
Assay [13] has as its target Protein-tyrosine kinase 6 (Homo sapiens, UniProt Q13882). Nature of the assay: Inhibition of full-length recombinant human His-tagged PTK6 expressed in baculovirus expression system by Z'-LYTE assay.
Assay [14] deals with RAF proto-oncogene serine/threonine-protein kinase (Homo sapiens, UniProt P04049, Y340D/Y341D). In words: Inhibition of recombinant human GST-tagged RAF1 Y340D/Y341D mutant expressed in baculovirus expression system by Z'-LYTE assay.
Sequence of RAF proto-oncogene serine/threonine-protein kinase (P04049 whole entry Y340D/Y341D): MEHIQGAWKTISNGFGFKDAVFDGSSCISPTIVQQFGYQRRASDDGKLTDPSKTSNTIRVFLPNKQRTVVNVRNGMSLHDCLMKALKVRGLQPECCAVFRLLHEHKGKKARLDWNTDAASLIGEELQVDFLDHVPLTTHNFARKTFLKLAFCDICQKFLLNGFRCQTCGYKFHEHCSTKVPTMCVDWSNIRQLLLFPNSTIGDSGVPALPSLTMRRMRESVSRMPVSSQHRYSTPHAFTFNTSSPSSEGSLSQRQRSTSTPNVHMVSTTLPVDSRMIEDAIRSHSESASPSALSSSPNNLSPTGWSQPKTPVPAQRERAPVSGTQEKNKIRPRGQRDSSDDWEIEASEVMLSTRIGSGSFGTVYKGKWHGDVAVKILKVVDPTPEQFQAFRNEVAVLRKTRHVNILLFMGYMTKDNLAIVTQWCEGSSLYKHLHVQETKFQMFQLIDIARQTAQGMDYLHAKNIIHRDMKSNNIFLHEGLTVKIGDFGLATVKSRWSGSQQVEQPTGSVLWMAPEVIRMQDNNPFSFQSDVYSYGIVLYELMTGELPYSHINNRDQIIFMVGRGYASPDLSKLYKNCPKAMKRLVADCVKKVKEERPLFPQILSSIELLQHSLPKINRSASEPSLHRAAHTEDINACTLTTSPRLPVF

Sequence of Misshapen-like kinase 1 (Q8N4C8 whole entry, the tested form may be a part): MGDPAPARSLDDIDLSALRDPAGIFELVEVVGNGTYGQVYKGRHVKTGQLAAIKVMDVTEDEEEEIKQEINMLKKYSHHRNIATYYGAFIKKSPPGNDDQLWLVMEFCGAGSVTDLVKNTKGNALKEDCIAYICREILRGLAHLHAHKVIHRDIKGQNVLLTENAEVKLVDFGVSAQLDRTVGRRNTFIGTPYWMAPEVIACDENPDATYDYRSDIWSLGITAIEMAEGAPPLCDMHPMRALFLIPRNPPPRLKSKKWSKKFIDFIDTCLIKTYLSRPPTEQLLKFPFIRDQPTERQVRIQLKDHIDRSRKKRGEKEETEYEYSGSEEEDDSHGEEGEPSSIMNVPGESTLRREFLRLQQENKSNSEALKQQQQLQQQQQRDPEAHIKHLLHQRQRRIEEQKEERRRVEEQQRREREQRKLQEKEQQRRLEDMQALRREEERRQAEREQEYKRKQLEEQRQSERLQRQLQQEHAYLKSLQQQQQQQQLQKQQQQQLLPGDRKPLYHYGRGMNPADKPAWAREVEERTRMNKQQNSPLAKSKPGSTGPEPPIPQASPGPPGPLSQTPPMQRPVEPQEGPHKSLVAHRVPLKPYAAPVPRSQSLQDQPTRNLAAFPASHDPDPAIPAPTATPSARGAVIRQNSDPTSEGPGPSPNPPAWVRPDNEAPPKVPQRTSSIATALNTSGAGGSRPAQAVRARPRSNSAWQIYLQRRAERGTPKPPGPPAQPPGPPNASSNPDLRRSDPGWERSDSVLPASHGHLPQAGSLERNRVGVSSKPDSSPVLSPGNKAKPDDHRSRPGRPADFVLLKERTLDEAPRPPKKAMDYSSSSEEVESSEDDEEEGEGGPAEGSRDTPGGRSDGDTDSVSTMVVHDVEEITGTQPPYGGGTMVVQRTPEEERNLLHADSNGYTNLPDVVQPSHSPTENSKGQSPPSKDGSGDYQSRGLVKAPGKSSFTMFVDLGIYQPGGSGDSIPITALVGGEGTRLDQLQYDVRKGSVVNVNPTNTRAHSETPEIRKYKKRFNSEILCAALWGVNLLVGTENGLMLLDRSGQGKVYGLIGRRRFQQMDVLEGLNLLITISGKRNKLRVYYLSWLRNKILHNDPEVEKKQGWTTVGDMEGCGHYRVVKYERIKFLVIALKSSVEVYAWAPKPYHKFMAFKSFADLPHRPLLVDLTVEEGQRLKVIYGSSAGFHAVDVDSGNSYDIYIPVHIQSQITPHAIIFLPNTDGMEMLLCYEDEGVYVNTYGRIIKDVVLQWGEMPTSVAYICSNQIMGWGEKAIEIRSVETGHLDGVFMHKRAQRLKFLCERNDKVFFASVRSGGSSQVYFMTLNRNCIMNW

By IC50 is commonly meant the point on the concentration scale where inhibition reaches its midpoint. As to `Cn1cc(-c2cnc3c(-c4csc(C(=O)NCC(F)(F)F)c4)cnn3c2)cn1`, the half-maximal inhibitory concentration (IC50) is more than 100000 nM in assay [1]; more than 100000 nM in assay [2]; 190 nM in [3]; 11 nM in [4]; less than 10 nM in assay [5]; more than 100000 nM in assay [6]. In addition, the IC50 in assay [7] stood at 33 nM; in assay [8] it was 19 nM; in [9], 24000 nM; in [10] it was 22 nM; in assay [11], 240 nM; in assay [12] it was 5900 nM. Besides, the concentration for half-maximal inhibition (IC50) was more than 100000 nM in [13] and 560 nM in assay [14].

As to `Cc1sc(C(=O)N[C@@H]2[C@H](N)CCCC2(F)F)cc1-c1cnn2cc(Cl)cnc12`, the IC50 was determined as 870 nM in assay [1]; 29000 nM in assay [2]; 200 nM in assay [3]; 130 nM in assay [4]; 580 nM in assay [5]; 1700 nM in assay [6]. Besides, the IC50 worked out at 6400 nM in assay [7]; 1900 nM in assay [8]; 15000 nM in assay [9]; 140 nM in [10]; 480 nM in [11]; 17000 nM in assay [12]. For the same compound, the half-inhibitory concentration (IC50) in assay [13] was more than 100000 nM; in assay [14], 950 nM.

For the compound `O=C(NCC(F)(F)F)c1cc(-c2cnn3cc(-c4ccc(OCCN5CCCCC5)cc4)cnc23)cs1`, the IC50 is 24000 nM in [1]; 55000 nM in assay [2]; 57 nM in assay [3]; less than 10 nM in assay [4]; less than 10 nM in assay [5]; 17000 nM in [6]. In addition, the IC50 in assay [7] is 30 nM; in assay [8] it was less than 10 nM; in assay [9], 2800 nM; in assay [10] it was 13 nM; in assay [11], 160 nM; in assay [12], 8800 nM. Moreover, the half-maximal inhibitory concentration (IC50) in assay [13] worked out at 1700 nM; in assay [14], 630 nM.

For the compound `Cn1cc(-c2cnc3c(-c4csc(C(=O)N[C@@H]5CCCC[C@@H]5N)c4)cnn3c2)cn1` (racemic), the concentration for half-maximal inhibition (IC50) was 80 nM in [1]; more than 10000 nM in [2]; 2.2 nM in assay [3]; 3.2 nM in [4]; 1.9 nM in assay [5]; 500 nM in [6]. Further, the IC50 in assay [7] was found to be 2.8 nM; in assay [8] it was 9 nM; in assay [9] it was 1200 nM; in assay [10], 6 nM; in assay [11], 48 nM; in assay [12], 2600 nM. The half-inhibitory concentration (IC50) in [13] is 390 nM; in assay [14], 48 nM.
